Here are results for 20 compounds from patent publication US20240083886A1, “HETEROCYCLIC GLP-1 AGONISTS” (Gasherbrum Bio, Inc., priority 2020, published 2024).

The term EC50 denotes the concentration at which the effect is half-maximal.

In the assay the target is GLP-1 Receptor (Homo sapiens, UniProt P43220). In words: GLP-1R agonist cAMP stimulation assay. The assay is classed as cell-based. On the procedure: Activation of GLP-1 receptor is known to stimulate cyclic AMP (cAMP) production in cells which indicates primary coupling to the Gαs subunit of the G protein heterotrimeric complex.
Chain of GLP-1 Receptor (P43220 24-463, species assumed): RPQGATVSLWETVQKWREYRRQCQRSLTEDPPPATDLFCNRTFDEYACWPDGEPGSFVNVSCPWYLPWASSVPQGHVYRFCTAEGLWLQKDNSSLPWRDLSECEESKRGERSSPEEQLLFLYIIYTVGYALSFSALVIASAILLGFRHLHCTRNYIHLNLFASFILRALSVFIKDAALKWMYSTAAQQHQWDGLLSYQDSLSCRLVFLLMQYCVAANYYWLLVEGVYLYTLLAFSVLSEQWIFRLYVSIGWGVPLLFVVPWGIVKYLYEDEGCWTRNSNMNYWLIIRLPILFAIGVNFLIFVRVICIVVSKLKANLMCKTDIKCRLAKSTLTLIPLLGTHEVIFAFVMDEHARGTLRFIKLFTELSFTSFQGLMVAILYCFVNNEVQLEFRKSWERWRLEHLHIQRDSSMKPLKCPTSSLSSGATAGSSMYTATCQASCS
To optimize functional activity directed toward Gαs coupling, a HEK293/CRE-Luc cell line developed by HDB stably expressing the GLP-1 Receptor was used. 200× concentration of compound working solutions were prepared (Agilent Technologies Bravo) with ½ log serial dilution in 384-well Echo LDV plate (Labcyte, Cat #LP-0200). 50 nL/well 200× concentration of compound working solutions were moved to 384-well white low volume plate (Greiner, Cat #784075) using Labcyte ECHO550. 1×10^5 cells/mL HEK293/GLP1R/CRE-LUC(HD Biosciences) cell suspensions prepared with assay buffer[DPBS containing 0.5 mM IBMX(Sigma, Cat #15879) and 0.1% BSA (GENVIEW, Cat #FA016-100 g)], 10 uL cell suspensions were added to each well of previous generated assay plate which already contains 50 nl compound at 200×concentration using ThermoFisher Multidrop Combi (1000 cells/well). Seal the plate and incubate at 37° C. with 5% CO2 for 30 min.
After incubation the cAMP assay signal was generated using cAMP dynamic 2 Kit (Cisbio). 5 μL cAMP-d2 working solution was added to each well, followed with 5 μL Anti-cAMP antibody-cryptate working solution added to each well using ThermoFisher Multidrop Combi. Incubate at room temperature for 1 hour protected from light. Read the fluorescence at 665 and 615 nm with Reader PerkinElmer EnVision.
% Activity=100%×(mean RLU of test sample−mean RLU of vehicle control)/(mean RLU of MAX control−mean RLU of vehicle control))

[1] abbreviates: HEK293/GLP1R/CRE-LUC cells, cAMP dynamic 2 Kit (Cisbio), 30 min incubation at 37° C., read-out: EC50.

Read-outs that look alike come from different tables or passages of the source.

For `Fc1cc(Cl)ccc1Cc1nccc(OC2CCN(Cc3nc4cc(/C=C/c5cccnc5)ccc4n3C[C@@H]3CCO3)CC2)n1` [Compound 118a, 2-{[4-({2-[(4-chloro-2-fluorophenyl)methyl]pyrimidin-4-yl}oxy)piperidin-1-yl]methyl}-1-{[(2S)-oxetan-2-yl]methyl}-5-[(1E)-2-(pyridin-3-yl)ethenyl]-1H-1,3-benzodiazole], the EC50 came to 44 nM.
For the compound `FC(F)(F)c1nnc(-c2cnc3c(c2)nc(CN2CCC(Oc4ccnc(Cc5ccc(Cl)cc5)n4)CC2)n3C[C@@H]2CCO2)[nH]1` [Compound 120a, 2-[(4-chlorophenyl)methyl]-4-({1-[(3-{[(2S)-oxetan-2-yl]methyl}-6-[5-(trifluoromethyl)-4H-1,2,4-triazol-3-yl]-3H-imidazo[4,5-b]pyridin-2-yl)methyl]piperidin-4-yl}oxy)pyrimidine], the EC50 is 0.17 nM.
Regarding `COCCOc1ccc(C(=O)Nc2ccc3c(c2)nc(CN2CCC(Oc4ccnc(Cc5ccc(Cl)cc5F)n4)CC2)n3C[C@@H]2CCO2)cn1` [Compound 115a, N-(2-{[4-({2-[(4-chloro-2-fluorophenyl)methyl]pyrimidin-4-yl}oxy)piperidin-1-yl]methyl}-1-{[(2S)-oxetan-2-yl]methyl}-1H-1,3-benzodiazol-5-yl)-6-(2-methoxyethoxy)pyridine-3-carboxamide], under setting [1], the EC50 was 2.7 nM.
`Fc1cc(Cl)ccc1Cc1ncc(F)c(OC2CCN(Cc3nc4cc(-c5nnc(C(F)(F)F)[nH]5)nnc4n3C[C@@H]3CCO3)CC2)n1` [Compound 180a, 2-[(4-chloro-2-fluorophenyl)methyl]-5-fluoro-4-({1-[(7-{[(2S)-oxetan-2-yl]methyl}-3-[5-(trifluoromethyl)-4H-1,2,4-triazol-3-yl]-7H-imidazo[4,5-c]pyridazin-6-yl)methyl]piperidin-4-yl}oxy)pyrimidine]: under setting [1], the EC50 was found to be 0.65 nM.
As to `CCc1ccc(C(=O)Nc2ccc3c(c2)nc(CN2CCC(Oc4ccnc(Cc5ccc(Cl)cc5F)n4)CC2)n3C[C@@H]2CCO2)cn1` [Compound 114a, N-(2-{[4-({2-[(4-chloro-2-fluorophenyl)methyl]pyrimidin-4-yl}oxy)piperidin-1-yl]methyl}-1-{[(2S)-oxetan-2-yl]methyl}-1H-1,3-benzodiazol-5-yl)-6-ethylpyridine-3-carboxamide], under setting [1], the EC50 came to 1.6 nM.
In the case of `N#CC1(Cn2c(CN3CCC(Oc4nc(Cc5ccc(Cl)cc5)ncc4F)CC3)nc3cc(-c4nnc(C(F)(F)F)[nH]4)ncc32)CC1` [Compound 178, 1-[(2-{[4-({2-[(4-chlorophenyl)methyl]-5-fluoropyrimidin-4-yl}oxy)piperidin-1-yl]methyl}-6-[5-(trifluoromethyl)-4H-1,2,4-triazol-3-yl]-3H-imidazo[4,5-c]pyridin-3-yl)methyl]cyclopropane-1-carbonitrile], the EC50 under setting [1] is 0.2 nM.
As for `O=c1[nH]c(-c2ccc3c(c2)nc(CN2CCC(Oc4cccc(Cc5ccc(Cl)cc5F)n4)CC2)n3C[C@@H]2CCO2)no1` [Compound 109a], the EC50 under setting [1] amounted to 15 nM.
In the case of `FC(F)(F)c1nnc(-c2ccc3c(c2)nc(CN2CCC(Oc4ccnc(Cc5ccc(Cl)cc5)n4)CC2)n3C[C@@H]2CCO2)[nH]1` [Compound 106a, 2-{[4-({2-[(4-chlorophenyl)methyl]pyrimidin-4-yl}oxy)piperidin-1-yl]methyl}-1-{[(2S)-oxetan-2-yl]methyl}-5-[5-(trifluoromethyl)-4H-1,2,4-triazol-3-yl]-1H-1,3-benzodiazole], the response was half-maximal at 0.098 nM (EC50).
For `Fc1cc(Cc2cccc(OC3CCN(Cc4nc5cc(-c6nnc(C(F)(F)F)[nH]6)ncc5n4C[C@@H]4CCO4)CC3)n2)ccc1Cl` [Compound 185a, 2-[(4-chloro-3-fluorophenyl)methyl]-6-({1-[(3-{[(2S)-oxetan-2-yl]methyl}-6-[5-(trifluoromethyl)-4H-1,2,4-triazol-3-yl]-3H-imidazo[4,5-c]pyridin-2-yl)methyl]piperidin-4-yl}oxy)pyridine], under setting [1], the EC50 is 0.37 nM.
Take `O=c1[nH]c(-c2cc3nc(CN4CCC(Oc5ccnc(Cc6ccc(Cl)cc6F)n5)CC4)n(C[C@@H]4CCO4)c3cn2)no1` [Compound 167a, 3-(2-{[4-({2-[(4-chloro-2-fluorophenyl)methyl]pyrimidin-4-yl}oxy)piperidin-1-yl]methyl}-3-{[(2S)-oxetan-2-yl]methyl}-3H-imidazo[4,5-c]pyridin-6-yl)-4,5-dihydro-1,2,4-oxadiazol-5-one]: the EC50 under setting [1] was 0.23 nM.
Consider `CCOCCn1c(CN2CCC(Oc3ccnc(Cc4ccc(Cl)cc4)n3)CC2)nc2cc(-c3nnc(C(F)(F)F)[nH]3)cnc21` [Compound 123, 2-[(4-chlorophenyl)methyl]-4-[(1-{[3-(2-ethoxyethyl)-6-[5-(trifluoromethyl)-4H-1,2,4-triazol-3-yl]-3H-imidazo[4,5-b]pyridin-2-yl]methyl}piperidin-4-yl)oxy]pyrimidine], for which the 50% effective concentration (EC50) is 5.7 nM.
`Fc1cc(Cl)ccc1Cc1nccc(OC2CCN(Cc3nc4cc(-c5nnc(C(F)(F)F)[nH]5)nnc4n3C[C@@H]3CCO3)CC2)n1` [Compound 182a, 2-[(4-chloro-2-fluorophenyl)methyl]-4-({1-[(7-{[(2S)-oxetan-2-yl]methyl}-3-[5-(trifluoromethyl)-4H-1,2,4-triazol-3-yl]-7H-imidazo[4,5-c]pyridazin-6-yl)methyl]piperidin-4-yl}oxy)pyrimidine]: under setting [1], the EC50 came out at 0.2 nM.
As for `Fc1cc(Cl)ccc1Cc1ncc(F)c(OC2CCN(Cc3nc4cc(-c5nnc(C(F)(F)F)[nH]5)ncc4n3C[C@@H]3CCO3)CC2)n1` [Compound 168a, 2-[(4-chloro-2-fluorophenyl)methyl]-5-fluoro-4-({1-[(3-{[(2S)-oxetan-2-yl]methyl}-6-[5-(trifluoromethyl)-4H-1,2,4-triazol-3-yl]-3H-imidazo[4,5-c]pyridin-2-yl)methyl]piperidin-4-yl}oxy)pyrimidine], the EC50 under setting [1] was found to be 0.081 nM.
Consider `Fc1cc(Cl)ccc1Cc1ncc(F)c(OC2CCN(Cc3nc4cc(-c5nnn[nH]5)ncc4n3C[C@@H]3CCO3)CC2)n1` [Compound 175a, 2-[(4-chloro-2-fluorophenyl)methyl]-5-fluoro-4-({1-[(3-{[(2S)-oxetan-2-yl]methyl}-6-(1H-1,2,3,4-tetrazol-5-yl)-3H-imidazo[4,5-c]pyridin-2-yl)methyl]piperidin-4-yl}oxy)pyrimidine], for which the EC50 under setting [1] turned out to be 0.17 nM.
For the compound `COc1ccc(C(=O)Nc2ccc3c(c2)nc(CN2CCC(Oc4ccnc(Cc5ccc(Cl)cc5F)n4)CC2)n3C[C@@H]2CCO2)cn1` [Compound 112a, N-(2-{[4-({2-[(4-chloro-2-fluorophenyl)methyl]pyrimidin-4-yl}oxy)piperidin-1-yl]methyl}-1-{[(2S)-oxetan-2-yl]methyl}-1H-1,3-benzodiazol-5-yl)-6-methoxypyridine-3-carboxamide], the EC50 under setting [1] was 0.37 nM.
In turn, `Cc1n[nH]c(-c2ccc3c(c2)nc(CN2CCC(Oc4ccnc(Cc5ccc(Cl)cc5)n4)CC2)n3C[C@@H]2CCO2)n1` [Compound 126a, 2-{[4-({2-[(4-chlorophenyl)methyl]pyrimidin-4-yl}oxy)piperidin-1-yl]methyl}-5-(3-methyl-1H-1,2,4-triazol-5-yl)-1-{[(2S)-oxetan-2-yl]methyl}-1H-1,3-benzodiazole] yielded an EC50 of 0.32 nM.
Turning to `O=C(O)c1ccc2c(c1)nc(CN1CCC(Oc3ccnc(Cc4ccc(Cl)cc4F)n3)CC1)n2C[C@@H]1CCO1` [Compound 135a, 2-{[4-({2-[(4-chloro-2-fluorophenyl)methyl]pyrimidin-4-yl}oxy)piperidin-1-yl]methyl}-1-{[(2S)-oxetan-2-yl]methyl}-1H-1,3-benzodiazole-5-carboxylic acid], the EC50 under setting [1] came to 0.19 nM.
For `Fc1cc(Cl)ccc1Cc1cccc(OC2CCN(Cc3nc4cc(-c5nnn[nH]5)ncc4n3C[C@@H]3CCO3)CC2)n1` [Compound 176a, 2-[(4-chloro-2-fluorophenyl)methyl]-6-({1-[(3-{[(2S)-oxetan-2-yl]methyl}-6-(1H-1,2,3,4-tetrazol-5-yl)-3H-imidazo[4,5-c]pyridin-2-yl)methyl]piperidin-4-yl}oxy)pyridine], the EC50 under setting [1] was 0.2 nM.
For `FC(F)(F)c1cnn(Cc2cccc(OC3CCN(Cc4nc5cc(-c6nnc(C(F)(F)F)[nH]6)ncc5n4C[C@@H]4CCO4)CC3)n2)c1` [Compound 186a, 2-({1-[(3-{[(2S)-oxetan-2-yl]methyl}-6-[5-(trifluoromethyl)-4H-1,2,4-triazol-3-yl]-3H-imidazo[4,5-c]pyridin-2-yl)methyl]piperidin-4-yl}oxy)-6-{[4-(trifluoromethyl)-1H-pyrazol-1-yl]methyl}pyridine], the EC50 under setting [1] came out at 4.4 nM.
`Cc1cc(-c2ccc3c(c2)nc(CN2CCC(Oc4ccnc(Cc5ccc(Cl)cc5)n4)CC2)n3C[C@@H]2CCO2)[nH]n1` [Compound 131a, 2-{[4-({2-[(4-chlorophenyl)methyl]pyrimidin-4-yl}oxy)piperidin-1-yl]methyl}-5-(3-methyl-1H-pyrazol-5-yl)-1-{[(2S)-oxetan-2-yl]methyl}-1H-1,3-benzodiazole]: the EC50 is 1.8 nM.
